Measurements from patent publication US11407781B2, “Equatorially modified polymer linked multimers of guanosine-3′, 5′-cyclic monophosphates” (GRAYBUG VISION, INC., priority 2016, dated 2022).
Marks after values point to notes of the source that are not given here.

Assays:
[1] = system: primary rod-like cells derived from the rd1 mutant mouse; assay: Primary rod-like cells: cell death by Ethidium Homodimer assay; settings: compared to Rp-8-Br-cGMPS and Rp-8-Br-PET-cGMPS; 0.1 μM and 1 μM, 24 hours (FIG. 2)
Protocol: Legend: Primary rod-like cells derived from the rd1 mutant mouse undergo spontaneous cell death 11 days after differentiation. Rod-like cells were exposed to compounds at day 10 of culture and analyzed 24 hours later. A.: 0.1 μM concentration of tested compounds. B.: 1 μM concentration of tested compounds. Percentage of dying cells was evaluated by Ethidium Homodimer assay. Untreated cells are shown as control sample (black bar). Reference compounds Rp-8-Br-cGMPS and Rp-8-Br-PET-cGMPS are shown as dashed bars. Data are shown as means±SD from at least three biological replicates.
Primary rod-like cells were obtained by isolating stem cells from the ciliary epithelium of murine eyes.^15 The cells are cultured until they form neurospheres in DMEM/F12 with FGF (20 ng/ml), Heparin (2 μg/ml), N2 (1x), Glucose (0.6%), HEPES (5 μM) and 1% Penicillin/Streptomycin. Single neurospheres are picked and plated onto glass slides coated with ECM in the same medium as before with the exception of reduced FGF concentration (10 ng/ml) to induce adhesion. […] To assess cell death, microphotographs were taken from three different slides for each compound concentration and the total number of cells, as well as the number of dying Ethidium Homodimer positive cells, were counted in each picture. […]

[2] = Determination of lipophilicity by RP-18 HPLC retention (log k′g); assay type: physicochemical; settings: RP-18 reversed phase HPLC, gradient elution, ion pair chromatography with triethylammonium cation
Source text: Lipophilicity information is thus often only obtained by fragment analysis and corresponding calculations.
An established HPLC method, which is based on retention data on RP-18 reversed phase silica during gradient elution, was used for the determination of lipohilicity.
Instead of log P the method yields the descriptor log k′g, ranking analytes according to their lipophilicity on a logarithmic scale as well. Since charged molecules such as cyclic nucleotides have only hardly any retention on reversed phases, ion pair chromatography with the lipophilic triethylammonium cation is used.

[3] = system: photoreceptors of rd1 explants; assay: Retinal explants: photoreceptor cell death by TUNEL stain; assay type: cell-based, mouse; settings: 50 μM
Protocol: Legend: The animals at the age of postnatal day 5 (PN5) were killed by decapitation and retinas were dissected out with retinal pigment epithelium attached as described previously.^9 The retinas were flattened out on the membranes of commercially available 6-well culture inserts, after which 1.5 ml of a custom made culturing medium was added to each well. These explants were then kept in culture for two days without any treatment after which the test analogue of the invention at the desired concentration was added at a medium change at PN7 (“7” in Figure). There was then a new medium change at PN9 (“9” in Figure), with same concentration of analogue of the invention, upon which the cultures were kept until PN11 (“11” in Figure). At this time point the experiment was finished by a fixation procedure. This paradigm is therefore called PN5+2+4. […]
Legend: Effects of selected analogues at given concentrations of the invention on the cell death of photoreceptors of rd1 explants. The cell death was assessed by so called TUNEL stain on fixated and sectioned material, after which the number of dying cells was counted and analysed, and compared with that from untreated rd1 explants. In order to allow more direct comparisons between the different analogues and concentrations a ratio of treated/untreated specimens was calculated. […]

| Structure (SMILES) | log k′g [2] | also measured |
| --- | --- | --- |
| Nc1nc2c(nc(SCC(=O)NCCOCCOCCOCCOCCOCCOCCOCCOCCNC(=O)CSc3nc4c(=O)[nH]c(N)nc4n3[C@@H]3O[C@@H]4COP(O)(=S)O[C@H]4[C@H]3O)n2[C@@H]2O[C@@H]3COP(O)(=S)O[C@H]3[C@H]2O)c(=O)[nH]1 (some centres unmarked) [Compound 1, Guanosine-3′,5′-cyclic monophosphorothioate[Rp]-[8-thiomethylamido-(octaethoxy)-ethylamidomethylthio-8]-guanosine-3′,5′-cyclic monophosphorothioate[Rp]] | 2.039* | protective effect against cell death in primary rod-like cells [1]: significantly improved potencies to prevent cell death |
| Nc1nc2c(nc(Sc3ccccc3N)n2[C@@H]2O[C@@H]3CO[P@@](=O)(S)O[C@H]3[C@H]2O)c(=O)[nH]1 (single isomer, unassigned) [Compound 30, 8-(2-Aminophenylthio)guanosine-3′,5′-cyclic monophosphorothioate, Rp-isomer] | 1.974 |  |
| Nc1nc2c(nc(Br)n2[C@@H]2O[C@@H]3COP(O)(=S)O[C@H]3[C@H]2O)c(=O)[nH]1 (some centres unmarked) [B, Rp-8-Br-cGMPS, reference compound] | 1.285 |  |
| O=C(CSc1nc2c(=O)n3cc(-c4ccccc4)[nH]c3nc2n1[C@@H]1O[C@@H]2COP(O)(=S)O[C@H]2[C@H]1O)Nc1ccccc1 (single isomer, unassigned) [Compound 33, β-Phenyl-1,N^2-etheno-8-phenylamidomethylthioguanosine-3′,5′-cyclic monophosphorothioate, Rp-isomer] | 3.411 |  |
| O=c1c2nc(Br)n(C3OC4COP(O)(=S)OC4C3O)c2nc2[nH]c(-c3ccsc3)cn12 (centres unmarked) [Compound 23, 8-Bromo-(3-thiophen-yl-1, N^2-etheno)guanosine-3′, 5′-cyclic monophosphorothioate] | 2.746 |  |
| Nc1nc2c(ncn2[C@@H]2O[C@@H]3COP(=O)(O)O[C@H]3[C@H]2O)c(=O)[nH]1 [cGMP, guanosine-3′,5′-cyclic monophosphate, reference compound] | 0.77 |  |
| O=c1c2nc(Br)n([C@@H]3O[C@@H]4CO[P@@](O)(=S)O[C@H]4[C@H]3O)c2nc2[nH]c(-c3ccccc3)cn12 [C, Rp-8-Br-PET-cGMPS, reference compound] | 2.831 |  |
| O=c1c2nc(Sc3ccc(O)cc3)n([C@@H]3O[C@@H]4COP(O)(=S)O[C@H]4[C@H]3O)c2nc2[nH]c(-c3ccccc3)cn12 (single isomer, unassigned) [Compound 34, 8-(4-Hydroxyphenylthio)-β-phenyl-1,N^2-ethenoguanosine-3′,5′-cyclic monophosphorothioate, Rp-isomer] | 3.078 |  |
| Cc1ccc(-c2cn3c(=O)c4nc(Br)n([C@@H]5O[C@@H]6COP(O)(=S)O[C@H]6[C@H]5O)c4nc3[nH]2)cc1 (single isomer, unassigned) [Compound 22, 8-Bromo-(4-methyl-β-phenyl-1,N^2-etheno)guanosine-3′,5′-cyclic monophosphorothioate, Rp-isomer] | 3.134 |  |
| O=C(CSc1nc2c(=O)n3cc(-c4ccccc4)[nH]c3nc2n1[C@@H]1O[C@@H]2COP(O)(=S)O[C@H]2[C@H]1O)NCCOCCOCCOCCOCCOCCOCCOCCOCCNC(=O)CSc1nc2c(=O)n3cc(-c4ccccc4)[nH]c3nc2n1[C@@H]1O[C@@H]2COP(O)(=S)O[C@H]2[C@H]1O (stereo partly drawn) [Compound 2, β-Phenyl-1,N^2-ethenoguanosine-3′,5′-cyclic monophosphorothioate[Rp]-[8-thiomethylamido-(octaethoxy)-ethylamidomethylthio-8]-β-phenyl-1,N^2-ethenoguanosine-3′,5′-cyclic monophosphorothioate[Rp]] | 3.236* | protective effect against cell death in primary rod-like cells [1]: significantly improved potencies to prevent cell death |
| Nc1nc2c(ncn2[C@@H]2O[C@@H]3COP(O)(=S)O[C@H]3[C@H]2O)c(=O)[nH]1 (some centres unmarked) [A, Rp-cGMPS, reference compound] | 0.894 |  |
| O=c1c2nc(Br)n([C@@H]3O[C@@H]4CO[P@@](=O)(S)O[C@H]4[C@H]3O)c2nc2[nH]c(-c3ccc4ccccc4c3)cn12 (single isomer, unassigned) [Compound 24, 8-Bromo-(2-naphthyl-1,N^2-etheno)guanosine-3′,5′-cyclic monophosphorothioate, Rp-isomer] | 3.426 |  |
| Nc1nc2c(nc(SCC(=O)Nc3ccccc3)n2[C@@H]2O[C@@H]3COP(O)(=S)O[C@H]3[C@H]2O)c(=O)[nH]1 (single isomer, unassigned) [Compound 31, 8-Phenylamidomethylthioguanosine-3′,5′-cyclic monophosphorothioate, Rp-isomer] | 2.105 |  |
| O=c1c2nc(Br)n([C@@H]3O[C@@H]4CO[P@@](O)(=S)O[C@H]4[C@H]3O)c2nc2[nH]c(-c3ccccc3)cn12 [Rp-8-Br-PET-cGMPS] |  | photoreceptor cell death, ratio of treated/untreated specimens ([3]; PN5+2+4 paradigm, TUNEL stain, untreated = 1.0): about 0.78; reduction of photoreceptor cell death ([3]; versus untreated): more than 20% |
